Publication PMC10089987, “The lipoxygenase OsLOX10 affects seed longevity and resistance to saline-alkaline stress during rice seedlings” (Plant Molecular Biology, 2023)

Molecular target: T1, LOX10 (OsLOX10) (Oryza sativa, UniProt B7EMC8)
T1 construct: full-length CDS (2607 bp, 868 aa) in pET28a(+), His tag, E. coli BL21(DE3) lysate supernatant, about 98 kDa plus tag (band at 100 kDa)
Test: KI-I2 starch staining (colour)
Format: biochemical
Settings: E. coli lysate supernatant with recombinant LOX10, 0.5 µg protein/µl and dilutions; controls pET28a(+) supernatant and PBS

T1 sequence (B7EMC8 1-868): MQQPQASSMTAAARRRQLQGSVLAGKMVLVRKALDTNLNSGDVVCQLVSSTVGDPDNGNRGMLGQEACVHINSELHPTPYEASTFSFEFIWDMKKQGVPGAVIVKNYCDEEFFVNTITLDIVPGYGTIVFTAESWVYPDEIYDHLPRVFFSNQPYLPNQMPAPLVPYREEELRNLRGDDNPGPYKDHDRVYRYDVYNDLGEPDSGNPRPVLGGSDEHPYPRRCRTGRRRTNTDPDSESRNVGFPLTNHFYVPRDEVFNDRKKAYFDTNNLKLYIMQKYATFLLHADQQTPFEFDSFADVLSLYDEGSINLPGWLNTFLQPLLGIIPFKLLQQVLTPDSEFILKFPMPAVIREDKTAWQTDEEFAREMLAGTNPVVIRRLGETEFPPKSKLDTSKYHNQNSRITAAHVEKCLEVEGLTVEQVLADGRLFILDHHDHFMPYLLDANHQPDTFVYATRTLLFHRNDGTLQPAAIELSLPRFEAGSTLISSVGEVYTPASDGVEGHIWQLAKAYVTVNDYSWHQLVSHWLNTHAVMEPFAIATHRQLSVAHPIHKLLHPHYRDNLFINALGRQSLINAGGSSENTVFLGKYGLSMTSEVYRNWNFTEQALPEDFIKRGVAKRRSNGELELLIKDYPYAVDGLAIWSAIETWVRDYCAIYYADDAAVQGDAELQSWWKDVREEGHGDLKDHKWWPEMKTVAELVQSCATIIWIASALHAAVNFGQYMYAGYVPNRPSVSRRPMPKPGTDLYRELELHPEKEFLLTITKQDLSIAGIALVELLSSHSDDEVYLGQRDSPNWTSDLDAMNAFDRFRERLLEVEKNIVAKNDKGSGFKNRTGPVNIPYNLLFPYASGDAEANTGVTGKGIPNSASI

CCCCC/C=C\C/C=C\CCCCCCCC(=O)O [LA, linoleic acid]
KI-I2 starch staining (colour): The KI-I2 staining showed that LOX10 could metabolize the substrate LA to produce starch
